System: SARS-CoV-2
Assay: microbe, parasite or virus in culture
Details: Severe acute respiratory syndrome coronavirus 2, Vero C1008, 48 h

Row | SMILES | IC50 [µM] | IC50 (read-out: pIC50 (converted)) [µM]
1 | CCOC(=O)CC(SP(=S)(OC)OC)C(=O)OCC (stereo unspecified) [MALATHION] | > 20 | > 20
2 | O=C(O)CC[C@H]1CC[C@](c2cc(F)ccc2F)(S(=O)(=O)c2ccc(Cl)cc2)CC1 | > 20 | > 20
3 | CC1C2Cc3ccc(O)cc3C1(C)CCN2CCc1ccccc1 (stereo unspecified) [PHENAZOCINE] | > 20 | > 20
4 | CC1CC(OC(=O)c2ccccc2)CC(C)(C)N1 (stereo unspecified) | > 20 | > 20
5 | CCN(c1cc(-c2ccc(CN3CCOCC3)cc2)cc(C(=O)NCc2c(C)cc(C)[nH]c2=O)c1C)C1CCOCC1 [TAZEMETOSTAT] | > 20 | > 20
6 | NC(=O)C[S+]([O-])C(c1ccccc1)c1ccccc1 (stereo unspecified) [MODAFINIL] | > 20 | > 20
7 | CC(O)COC[C@H]1O[C@@H]2O[C@H]3[C@H](O)[C@@H](O)[C@@H](O[C@H]4[C@H](O)[C@@H](O)[C@@H](O[C@H]5[C@H](O)[C@@H](O)[C@@H](O[C@H]6[C@H](O)[C@@H](O)[C@@H](O[C@H]7[C@H](O)[C@@H](O)[C@@H](O[C@H]8[C@H](O)[C@@H](O)[C@@H](O[C@H]1[C@H](O)[C@H]2O)O[C@@H]8COCC(C)O)O[C@@H]7COCC(C)O)O[C@@H]6COCC(C)O)O[C@@H]5COCC(C)O)O[C@@H]4COCC(C)O)O[C@@H]3COCC(C)O (stereo partly drawn) [2-HYDROXYPROPYL-BETA-CYCLODEXTRIN] | > 20 | > 20
8 | COc1ccn(C)c(=O)c1C#N [RICININE] | > 20 | > 20
9 | O=C1C[C@@H](c2ccc(O)cc2)Oc2cc(O)cc(O)c21 [NARINGENIN] | > 20 | > 20
10 | N=C(N)NN [PIMAGEDINE] | > 20 | > 20
11 | OC(CCN1CCCC1)(c1ccccc1)C1CCCCC1 (stereo unspecified) [PROCYCLIDINE] | > 20 | > 20
12 | NC(Cc1ccc(Cl)cc1)C(=O)O (racemic) [FENCLONINE] | > 20 | > 20
13 | c1cncc(C2CCCCN2)c1 (stereo not drawn) [DL-ANABASINE] | > 20 | > 20
14 | Oc1c(I)cc(I)c2cccnc12 [IODOQUINOL] | > 20 | > 20
15 | CC(=O)O[C@]1(C(C)=O)CCC2C3CCC4=CC(=O)CCC4C3C(C)CC21C (stereo partly specified) | > 20 | > 20
16 | CO/N=C(\C(=O)N[C@@H]1C(=O)N2C(C(=O)O)=C(CSc3nc(=O)c(O)nn3C)CS[C@H]12)c1csc(N)n1 [CEFTRIAXONE] | > 20 | > 20
17 | CN(C)C(=N)NC(=N)N [METFORMIN] | > 20 | > 20
18 | Clc1ccccc1CN1CCc2sccc2C1 [TICLOPIDINE] | > 20 | > 20
19 | Cc1c(-c2ccnn2C)cc(C(=O)NCc2ccc(S(C)(=O)=O)cn2)c(=O)n1-c1cccc(C(F)(F)F)c1 | > 20 | > 20

Row | SMILES | IC50 [µM] | IC50 (read-out: pIC50 (converted)) [µM]
20 | CCCCC(C)(O)C/C=C/C1C(O)CC(=O)C1CC/C=C/CCC(=O)OC (stereo unspecified) | > 20 | > 20
21 | CCOC(=O)Cc1ccc(-c2ccccc2)cc1 | > 20 | > 20
22 | COc1ccc2[nH]c([S@@+]([O-])Cc3ncc(C)c(OC)c3C)nc2c1 [ESOMEPRAZOLE] | > 20 | > 20
23 | CCc1nc(N)nc(N)c1-c1ccc(Cl)cc1 [PYRIMETHAMINE] | > 20 | > 20
24 | CCC(=O)OC1(c2ccccc2)CCN(C)C1C (stereo unspecified) [PRODILIDINE] | > 20 | > 20
25 | CCCC(C)C1(CC)C(=O)NC(=S)NC1=O (stereo unspecified) [THIOPENTAL] | > 20 | > 20
26 | NC(CSCC(=O)O)C(=O)O (stereo unspecified) | > 20 | > 20
27 | CN(C)S(=O)(=O)c1cc2c(c(Cl)c1Cl)OC(C(=O)O)C2 (stereo unspecified) | > 20 | > 20
28 | COc1ccc2c(OC3CC4C(=O)NC5(C(=O)NS(=O)(=O)C6CC6)CC5/C=C\CCCCN(C)C(=O)C4C3)cc(-c3nc(C(C)C)cs3)nc2c1C (stereo unspecified) | > 20 | > 20
29 | CCNC(=O)C[C@H]1N=C(c2ccc(Cl)cc2)c2cc(OC)ccc2-n2c(C)nnc21 | > 20 | > 20
30 | c1ccc(CN(CC2=NCCN2)c2ccccc2)cc1 [ANTAZOLINE] | > 20 | > 20
31 | NC(=O)N1CCC(CC(=O)N2CCC([C@H]3c4ncc(Br)cc4CCc4cc(Cl)cc(Br)c43)CC2)CC1 [LONAFARNIB] | > 20 | > 20
32 | O=P(O)(O)OCC(O)CO (stereo unspecified) | > 20 | > 20
33 | CC(C)[N+](C)(CCOC(=O)C1c2ccccc2Oc2ccccc21)C(C)C [PROPANTHELINE] | > 20 | > 20
34 | Cc1cccc(C)c1NC(=O)NCCCNC(C)C | > 20 | > 20
35 | CCCN1CCCC2Cc3nc(N)ncc3CC21 (stereo unspecified) | > 20 | > 20
36 | N#Cc1ccc(/C=N/NC(N)=S)s1 [CITENAZONE] | > 20 | > 20
37 | C[C@H](O)C(=O)C1=Nc2c(nc(N)[nH]c2=O)NC1 [SEPIAPTERIN] | > 20 | > 20
38 | COc1cc(C(C)=O)ccc1OCCCN1CCC(c2noc3cc(F)ccc23)CC1 [ILOPERIDONE] | > 20 | > 20

From ChEMBL document CHEMBL4651402, “Screening of ~5500 FDA-approved drugs and clinical candidates for anti-SARS-CoV-2 activity” (2021)
